From US11033630B2, “Method and pharmaceutical composition for treatment of neurodegeneration” (priority 2016, dated 2021)
Where two headings read alike, the source gives them in different places.

Tests used:
[1] = Blood-Brain Barrier (BBB) penetration: DFO concentration in rat brain after IP injection; settings: for DFO (mg/g organ) / DFO (mg/whole organ): rat brain, 90 min after IP injection
Experimental: (§1) In this study, the ability of the Zn-DFO complex to infiltrate into the brain was examined. Rats were injected intraperitoneally (IP) with increasing amounts of DFO alone or Zn-DFO complex, and the concentration of DFO was measured in their brains, thus monitoring their infiltrability.
(§2) In particular, male Sprague-Dawley (SD) rats (300 g average body weight, 3 animals per group) were injected IP with DFO (250, 500, or 1000 mg/kg body weight). For comparison, Zn-DFO solution in freshly prepared saline was injected IP (250, 500, or 1000 mg/kg body weight, which are equivalent to 883, 442, or 221 mg DFO/kg body weight, respectively).
(§3) The behavior of the rats was monitored for 90 min following the injection. Then, the animals were euthanized using an injection of ketamine-xylazine, and their hearts, livers, left kidneys, and brains were excised and weighted. Brain samples (300 mg tissue) were homogenized in 3 ml Lysis buffer. Tissue homogenates were incubated at 110° C. for 5 min and centrifuged for 5 min at 14,500 relative centrifugal force (RCF). An equal volume of 40% trichloroacetic acid (TCA) solution was added, forming a solution containing 20% TCA, which was vortexed and centrifuged again. The supernatants were transferred into cuvettes, and DFO concentration was spectrophotometrically measured, after addition of 10 mM of ferric iron solution (as a weak complex of iron, ferric-nitrilo-tri-acetate, at pH=7.4), and scanning the range of λ=380-580 nm. The final concentration was calculated according to the Beer-Lambert law, using εDFO=2460 M^−1cm^−1; the total amount of DFO per gram tissue and per whole brain were calculated.

[2] = complex with Cu(II); cited from earlier work
[3] = Behavior of rats monitored after IP injection; settings: monitored for 90 min
Experimental: as §2
(§4) The behavior of the rats was monitored for 90 min following the injection.

[4] = complex with Fe(III); cited from earlier work
[5] = complex with Ga(III); cited from earlier work
[6] = complex with Zn(II); cited from earlier work
[7] = tested on: streptozotocin (STZ)-induced model in C57BL/6 mice; experiment: Streptozotocin-induced model of Alzheimer disease; type: in vivo; settings: IP, Zn-DFO/Ga-DFO 2 and 6 mg/kg daily, Eu-DFO 4 mg/kg
Experimental: In this study, the therapeutic effect of metal-DFO complex on Alzheimer disease is tested, using the streptozotocin (STZ)-induced model in mice.
The disease is induced in 10 weeks old male C57BL/6 mice. The animals are placed into a stereotaxic frame for mice with nose and ear bars. STZ (3 mg/kg) or citrate buffer (for the control group) is injected bilaterally into the lateral ventricles at the following coordinates: AP—0.5 mm; ML ±1.1 mm; DV—2.8 mm relative to the bregma in a total volume of 1.5 μl to hemisphere. The injections are repeated 2 days after the first STZ injection (1.5 mg/kg). In order to confirm that the stereotaxic coordinates used throughout the study are suitable for STZ injection into lateral ventricles, FITC-labeled latex microspheres are injected into lateral ventricles and the presence of fluorescence in the surrounding brain tissue is examined 24 h after injection. Mice are treated with Zn-DFO or Ga-DFO daily, by IP injections of 2 mg/kg and 6 mg/kg, and with Eu-DFO as IP injection, 4 mg/kg. During 21 days of the experiment the mice undergo maze tests and novel object recognition (NOR) tests every 7 days. Clinical signs including general body condition and dehydration are monitored daily after the surgery. Every 7 days a representative number of mice is taken from each group and euthanized for Alzheimer's disease markers (amyloid-β protein, neurofilament expression, phosphorylation of Tau protein, synapsin expression) biochemical and histochemical evaluation (Ravelli et al., 2016).

[8] = tested on: MPTP model in C57BL/6 mice; experiment: MPTP mouse model of Parkinson's disease; type: in vivo; settings: 2 mg/kg daily IP
Experimental: In this study, the therapeutic effect of metal-DFO complex on Parkinson's disease is tested, using the 1-methyl-4-phenyl-1,2,3,6-tetrahydropyridine (MPTP) model in mice.
Parkinson's disease is induced in 10 weeks old male C57BL/6 mice by four continuous IP injections of 20 mg/kg of MPTP, every 2 hours and during 8 hours, for 5 days (Jackson-Lewis and Przedborski, 2007). The animals are treated with Zn-DFO or Ga-DFO by daily IP injections, 2 mg/kg and 6 mg/kg, 30 min prior to the first exposure to MPTP. On day 8 the animals are euthanized. Immediately after the euthanasia, the striata are dissected out to perform biochemical and histological assessment of the damage to dopaminergic innervation.

[9] = tested on: MOG35-55-induced EAE in C57BL/6 mice; experiment: Experimental Autoimmune Encephalomyelitis (EAE), model for multiple sclerosis; type: in vivo
Experimental: In this study, the therapeutic effect of metal-DFO complex on multiple sclerosis (MS) is tested, using the Experimental Autoimmune Encephalomyelitis (EAE) in mice.
EAE is induced in 8-week-old female C57BL/6 mice by subcutaneous (SC) injection of 125 μg of myelin oligodendrocyte glycoprotein 35-55 peptide (MOG35-55) emulsified in complete Freund's adjuvant (CFA) containing 5 mg/ml heat-killed Mycobacterium tuberculosis into the left para-lumbar region. Immediately thereafter, and again at 48 h, the mice are inoculated intraperitoneal (IP) with 0.5 ml of pertussis toxin (400 ng). Seven days later, the mice are further challenged with an additional injection of MOG35-55 peptide in CFA injected into the right para-lumbar region. Mice are treated with Zn-DFO or Ga-DFO daily as IP injections, 2 mg/kg and 6 mg/kg.
The severity of the disease is assessed using the scale shown in Table 2 (Bittner et al., 2014).

[10] = rat, in vivo, ip
Experimental: as §2, §4

[11] = tested on: contusion spinal cord injury model in C57BL/6 mice; experiment: Contusion spinal cord injury model; type: in vivo; settings: 3 mg/kg IP
Experimental: In this study, the therapeutic effect of metal-DFO complex on spinal cord injury was tested, using a contusion spinal cord injury model in C57BL/6 mice.
A contusion spinal cord injury model was employed using Infinite Horizon spinal cord impactor. The injury was performed at force setting of 70 kilodyne, for 100 ms (milisecond) on exposed T12 vertebra of the mouse (8 weeks old male), anesthetized with a ketamine-xylazine mixture (85:15), and immobilized. Immediately before the impact, the mice were injected with buprenorphine (0.1 mg/ml/kg body weight) as an analgesic.
Twenty one mice, after contusion, were divided into three groups (n=7), according to their treatment as following (Basso et al., 2006): Group 1—control untreated; Group 2—treated with saline (IP injections of 100 μl on Days 1, 2, 3, 4, 6, 8, 10, 12, 14, 17, 20, 23, 27, 31, 35, 39, and 42); Group 3—treated with Zn-DFO complex, 3 mg/kg body weight in saline (IP injections of 100 μl according to the same regimen as Group 2). Both treated groups (saline and Zn-DFO complex) received the first treatment 10 min following the Impactor-induced trauma.
The post-traumatic recovery of mice locomotion with or without treatment was assessed on a daily basis for the next 43 days, using open field Basso mouse scale (BMS) score as following: 0—no ankle movement; 1—slight ankle movement; 2—extensive ankle movement; 3—plantar placing of the paw with or without weight support, or occasional, frequent or consistent dorsal stepping but no plantar stepping; 4—occasional plantar stepping; 5—frequent or consistent plantar stepping, no coordination, or frequent or consistent plantar stepping, some coordination, paws rotated at initial contact and lift off (R/R); 6—frequent or consistent plantar stepping, some coordination, paws parallel at initial contact (P/R, P/P), or frequent or consistent plantar stepping, mostly coordinated, paws rotated at initial contact and lift off (R/R); 7—frequent or consistent plantar stepping, mostly coordinated, paws parallel at initial contact and rotated at lift off (P/R), or frequent or consistent plantar stepping, mostly coordinated, paws parallel at initial contact and lift off (P/P), and severe trunk instability; 8—frequent or consistent plantar stepping, mostly coordinated, paws parallel at initial contact and lift off (P/P), and mild trunk instability, or frequent or consistent plantar stepping, mostly coordinated, paws parallel at initial contact and lift off (P/P), and normal trunk stability and tail down or up & down; and 9—frequent or consistent plantar stepping, mostly coordinated, paws parallel at initial contact and lift off (P/P), and normal trunk stability and tail always up (P—parallel; R—rotated). The values were normalized considering the basal score on Day 0 as 100%.
On Day 43, the animals were euthanized, and their spinal cords were excised and stored in paraformaldehyde (PFA) 4% for histological analysis. Epon blocks were prepared, and the histological analysis was performed after staining with methylene blue.

[12] = rat, in vivo, ip; remark: listed apart in the source
Experimental: as §1, §2, §3

H9C2 cardiomyocytes = experiment: Penetration of cellular membranes in tissue culture model; type: in vitro ADME; settings: data not shown
From the text: It is postulated that some of the useful effects exerted by DFO in inhibiting ROS formation are achieved through its actions as a chelating agent (chelant, chelator, or sequestering agent), capable of forming soluble complexes, i.e., chelates, with certain metal ions and consequently inactivating said metal ions such that they cannot normally react with other elements or ions. Such chelates often have chemical and biological properties that are markedly different from those of either the chelator or metal ion, alone. For example, whereas DFO is a molecule having a noodle-like structure that can sparingly infiltrate into cells, metal-chelates formed by said molecule, e.g., the zinc-, gallium- or iron-chelates, assume a globular structure capable of infiltrating into cells.

In the case of `CC(=O)N(O)CCCCCNC(=O)CCC(=O)N(O)CCCCCNC(=O)CCC(=O)N(O)CCCCCN` [DFO, N′-[5-(Acetyl-hydroxy-amino)pentyl]-N-[5-[3-(5-aminopentyl-hydroxy-carbamoyl)propanoylamino]pentyl]-N-hydroxy-butane diamide], the “DFO (mg/g organ)” value ([1]; 250 mg/kg) is reported as less than 0.005 mg/g organ, the “DFO (mg/whole organ)” value ([1]; 250 mg/kg) is reported as less than 0.005 mg/whole organ and the “DFO (mg/g organ)” value ([1]; 500 mg/kg) is reported as less than 0.005 mg/g organ. For the same molecule, the “DFO (mg/whole organ)” value ([1]; 500 mg/kg) was less than 0.005 mg/whole organ, the “DFO (mg/g organ)” value ([1]; 1000 mg/kg) was 0.008 ± 0.004 mg/g organ and the “DFO (mg/whole organ)” value ([1]; 1000 mg/kg) was 0.019 ± 0.008 mg/whole organ. For the same molecule, the “DFO infiltrated the brain (%)” value ([1]; rat, IP, 250 mg/kg) was less than 0.0015%, the “DFO infiltrated the brain (%)” value ([1]; rat, IP, 500 mg/kg) was less than 0.0015% and the “DFO infiltrated the brain (%)” value ([1]; rat, IP, 1000 mg/kg) was 0.002%. The “fraction of DFO that had infiltrated into the brain” value ([1]; rat, IP, over the 3 doses (250, 500 and 1000 mg/kg)) was no more than 0.002%, the “relative stability constant of DFO complex” value (“relative stability constant” for short) [2] was 10^14 and the “changes in rats' behavior” value ([3]; IP 250 mg/kg) was “no changes in rats' behavior was observed”. For the same molecule, the “changes in rats' behavior” value ([3]; IP 500 mg/kg) was “no changes in rats' behavior was observed”, the “changes in rats' behavior” value ([3]; IP 1000 mg/kg) was “no changes in rats' behavior was observed” and the “relative stability constant” value [4] was 10^31. For the same molecule, the “relative stability constant” value [5] was 10^28 and the “relative stability constant” value [6] was 10^11.
In the case of `CC(=O)N(O)CCCCCNC(=O)CCC(=O)N(O)CCCCCNC(=O)CCC(=O)N(O)CCCCCN.[Eu+3]` [Eu-DFO], the “diminishing expression of synapsin” value [7] is reported as “Only a minute effect” and the “expression of Aβ protein and phosphorylation of Tau protein in the hippocampus” value (from here on “expression … in the hippocampus”) [7] is reported as “slightly better than Ga-DFO”.
With `CC(=O)N([O-])CCCCCNC(=O)CCC(=O)N([O-])CCCCCNC(=O)CCC(=O)N([O-])CCCCCN.[Ga+3]` [Ga-DFO, gallium-desferrioxamine B] the “number of TH-positive neurons within the substantia nigra (% of control)” value [8] was 65%, the “onset of the disease” value ([9]; 2 mg/kg daily IP) was 14 days and the “onset of the disease” value ([9]; 6 mg/kg daily IP) was 15 days. The “diminishing expression of synapsin” value [7] was “attenuate this process dose-dependently”, the “expression … in the hippocampus” value [7] was “inhibited” and the “impairment of maze and NOR test outcomes” value [7] was “(largely) prevent this impairment in a dose-dependent manner”.
In the case of Zinc-desferrioxamine B [Zn-DFO], the “changes in rats' behavior” value ([10]; 250 mg/kg) is reported as “no changes in the rats' behavior could be identified”, the “changes in rats' behavior” value ([10]; 500 mg/kg) is reported as “no changes in the rats' behavior could be identified” and the “changes in rats' behavior” value ([10]; 1000 mg/kg) is reported as “passive and apathetic”. For the same molecule, the BMS score ([11]; Day 13) was 5.1, the “normalized BMS score (% of initial scoring, Day 0)” value ([11]; Day 13) was 347% and the “normalized BMS score (% of initial scoring), plateau” value ([11]; Day 29) was 389%. The “BMS score, plateau” value ([11]; Day 29, scale 0-9) was 5.7, the “density of axons and axonal myelin sheath in white matter” value ([11]; spinal cord histology, Day 43) was “restoring the density of axons and axonal myelin sheath” and the “white matter area (fraction of the total area)” value ([11]; spinal cord histology, Day 43) was 50.8±3.3%. For the same molecule, the body weight gain ([11]; vs non-treated or saline-treated animals) was “gained weight better than the non-treated or saline-treated animals”, the “number of TH-positive neurons within the substantia nigra (% of control)” value [8] was 65% and the “infiltrability into the brain relative to DFO alone” value [12] was “at least 8.6 fold”. The “DFO (mg/g organ)” value ([12]; 250 mg/kg) was 0.017 ± 0.002 mg/g organ, the “DFO (mg/whole organ)” value ([12]; 250 mg/kg) was 0.032 ± 0.004 mg/whole organ and the “DFO infiltrated the brain (%)” value ([12]; 250 mg/kg) was 0.014%. The “DFO (mg/g organ)” value ([12]; 500 mg/kg) was 0.031 ± 0.001 mg/g organ, the “DFO (mg/whole organ)” value ([12]; 500 mg/kg) was 0.054 ± 0.002 mg/whole organ and the “DFO infiltrated the brain (%)” value ([12]; 500 mg/kg) was 0.012%. For the same molecule, the “DFO (mg/g organ)” value ([12]; 1000 mg/kg) was 0.072 ± 0.011 mg/g organ, the “DFO (mg/whole organ)” value ([12]; 1000 mg/kg) was 0.133 ± 0.010 mg/whole organ and the “DFO infiltrated the brain (%)” value ([12]; 1000 mg/kg) was 0.014%. The “onset of the disease” value ([9]; 2 mg/kg daily IP) was 14 days, the “onset of the disease” value ([9]; 6 mg/kg daily IP) was 15 to 16 days and the peak clinical score ([9]; 6 mg/kg daily IP, Day 19, Table 2 scale) was “less than 3”. The “ability to infiltrate into the cells relative to DFO alone” value (H9C2 cardiomyocytes) was “more than threefold higher”, the “diminishing expression of synapsin” value [7] was “attenuate this process dose-dependently” and the “expression … in the hippocampus” value [7] was “inhibited”. For the same molecule, the “impairment of maze and NOR test outcomes” value [7] was “(largely) prevent this impairment in a dose-dependent manner”.
